Results reported in publication PMC8213057, “Targeting ALK2: An Open Science Approach to Developing Therapeutics for the Treatment of Diffuse Intrinsic Pontine Glioma” (Journal of Medicinal Chemistry, 2020).

Tests used:
EPHA1 = biological target: T1, EPHA1 (Homo sapiens, UniProt P21709); details: 1 μM; Run 1, Run 2
T1 sequence (P21709 26-976): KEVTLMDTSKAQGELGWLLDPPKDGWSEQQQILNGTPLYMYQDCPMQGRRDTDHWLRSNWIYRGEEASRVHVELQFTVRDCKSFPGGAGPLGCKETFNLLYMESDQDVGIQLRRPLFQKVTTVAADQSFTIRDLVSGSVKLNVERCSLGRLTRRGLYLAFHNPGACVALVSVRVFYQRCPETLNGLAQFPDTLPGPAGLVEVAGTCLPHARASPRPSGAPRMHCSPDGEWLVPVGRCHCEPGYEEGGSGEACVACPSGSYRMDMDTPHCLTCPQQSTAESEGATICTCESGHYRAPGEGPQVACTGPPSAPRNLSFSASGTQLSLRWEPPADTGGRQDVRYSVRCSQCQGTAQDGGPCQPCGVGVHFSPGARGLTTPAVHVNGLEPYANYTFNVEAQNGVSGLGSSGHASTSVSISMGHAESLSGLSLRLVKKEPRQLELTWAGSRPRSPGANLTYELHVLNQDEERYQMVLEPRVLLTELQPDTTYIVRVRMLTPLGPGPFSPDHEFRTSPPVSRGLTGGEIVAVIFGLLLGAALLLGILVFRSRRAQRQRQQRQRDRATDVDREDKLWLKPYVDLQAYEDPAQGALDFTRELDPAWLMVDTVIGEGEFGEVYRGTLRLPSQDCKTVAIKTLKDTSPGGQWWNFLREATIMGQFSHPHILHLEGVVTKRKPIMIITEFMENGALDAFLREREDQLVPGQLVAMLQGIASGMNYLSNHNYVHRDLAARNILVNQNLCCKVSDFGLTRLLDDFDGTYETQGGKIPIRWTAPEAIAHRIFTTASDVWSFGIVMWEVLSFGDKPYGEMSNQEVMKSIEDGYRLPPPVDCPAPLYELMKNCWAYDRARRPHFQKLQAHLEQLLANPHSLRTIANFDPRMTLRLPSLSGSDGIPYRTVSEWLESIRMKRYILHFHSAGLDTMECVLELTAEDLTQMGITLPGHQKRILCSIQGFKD

Haspin = biological target: T2, Haspin (Homo sapiens, UniProt Q8TF76); details: 1 μM; Run 1, Run 2
T2 sequence (Q8TF76 1-798): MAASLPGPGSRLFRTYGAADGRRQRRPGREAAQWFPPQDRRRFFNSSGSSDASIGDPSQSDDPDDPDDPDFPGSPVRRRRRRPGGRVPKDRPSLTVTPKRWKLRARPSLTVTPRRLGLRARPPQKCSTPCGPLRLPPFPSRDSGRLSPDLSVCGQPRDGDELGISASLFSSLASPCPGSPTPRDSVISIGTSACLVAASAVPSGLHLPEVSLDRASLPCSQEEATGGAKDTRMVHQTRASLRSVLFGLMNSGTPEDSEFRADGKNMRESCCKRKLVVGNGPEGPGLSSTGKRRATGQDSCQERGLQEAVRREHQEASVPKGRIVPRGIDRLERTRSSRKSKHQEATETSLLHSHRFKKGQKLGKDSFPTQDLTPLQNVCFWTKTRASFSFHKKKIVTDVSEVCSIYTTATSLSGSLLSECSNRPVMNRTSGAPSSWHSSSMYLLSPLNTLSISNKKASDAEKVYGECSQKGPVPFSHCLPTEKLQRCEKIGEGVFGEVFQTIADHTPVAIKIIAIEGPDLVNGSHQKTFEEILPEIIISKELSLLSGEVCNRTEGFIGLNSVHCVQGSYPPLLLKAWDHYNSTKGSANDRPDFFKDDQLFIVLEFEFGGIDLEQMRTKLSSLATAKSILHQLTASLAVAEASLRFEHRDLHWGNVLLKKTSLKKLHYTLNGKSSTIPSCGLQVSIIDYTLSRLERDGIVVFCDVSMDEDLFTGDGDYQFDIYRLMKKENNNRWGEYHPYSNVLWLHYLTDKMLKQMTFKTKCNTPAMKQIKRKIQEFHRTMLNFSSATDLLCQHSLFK

PDK1/PDPK1 = biological target: T3, PDK1/PDPK1 (Homo sapiens, UniProt O15530); details: 1 μM; Run 1, Run 2
T3 sequence (O15530 1-556): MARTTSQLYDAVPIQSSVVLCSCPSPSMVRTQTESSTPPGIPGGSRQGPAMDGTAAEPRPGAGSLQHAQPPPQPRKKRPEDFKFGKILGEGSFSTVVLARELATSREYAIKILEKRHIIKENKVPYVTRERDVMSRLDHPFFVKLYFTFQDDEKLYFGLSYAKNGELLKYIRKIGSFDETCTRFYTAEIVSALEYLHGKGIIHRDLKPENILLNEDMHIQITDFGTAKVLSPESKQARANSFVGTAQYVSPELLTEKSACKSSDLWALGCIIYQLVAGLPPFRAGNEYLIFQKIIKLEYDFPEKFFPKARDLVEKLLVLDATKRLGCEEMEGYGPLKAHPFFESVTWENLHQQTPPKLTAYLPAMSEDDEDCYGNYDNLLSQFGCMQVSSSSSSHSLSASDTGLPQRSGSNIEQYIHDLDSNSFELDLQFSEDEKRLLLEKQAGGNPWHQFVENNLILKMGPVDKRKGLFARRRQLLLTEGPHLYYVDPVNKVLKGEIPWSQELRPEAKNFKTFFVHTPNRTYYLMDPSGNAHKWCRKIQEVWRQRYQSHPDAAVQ

RSK4 = RSK4 (Homo sapiens, UniProt Q9UK32); details: 1 μM; Run 1, Run 2
STK38/NDR1 = STK38/NDR1 (Homo sapiens, UniProt Q15208); details: 1 μM; Run 1, Run 2
CDK16/cyclin Y (PCTAIRE) = CDK16/cyclin Y (PCTAIRE) (Homo sapiens, UniProt Q00536); assay: biochemical; details: read-out: % enzyme activity, 1 μM; Run 1, Run 2
FGFR4 = FGFR4 (Homo sapiens, UniProt P22455); assay: biochemical; details: read-out: % enzyme activity, 1 μM; Run 1, Run 2
Chain of FGFR4 (P22455 22-802): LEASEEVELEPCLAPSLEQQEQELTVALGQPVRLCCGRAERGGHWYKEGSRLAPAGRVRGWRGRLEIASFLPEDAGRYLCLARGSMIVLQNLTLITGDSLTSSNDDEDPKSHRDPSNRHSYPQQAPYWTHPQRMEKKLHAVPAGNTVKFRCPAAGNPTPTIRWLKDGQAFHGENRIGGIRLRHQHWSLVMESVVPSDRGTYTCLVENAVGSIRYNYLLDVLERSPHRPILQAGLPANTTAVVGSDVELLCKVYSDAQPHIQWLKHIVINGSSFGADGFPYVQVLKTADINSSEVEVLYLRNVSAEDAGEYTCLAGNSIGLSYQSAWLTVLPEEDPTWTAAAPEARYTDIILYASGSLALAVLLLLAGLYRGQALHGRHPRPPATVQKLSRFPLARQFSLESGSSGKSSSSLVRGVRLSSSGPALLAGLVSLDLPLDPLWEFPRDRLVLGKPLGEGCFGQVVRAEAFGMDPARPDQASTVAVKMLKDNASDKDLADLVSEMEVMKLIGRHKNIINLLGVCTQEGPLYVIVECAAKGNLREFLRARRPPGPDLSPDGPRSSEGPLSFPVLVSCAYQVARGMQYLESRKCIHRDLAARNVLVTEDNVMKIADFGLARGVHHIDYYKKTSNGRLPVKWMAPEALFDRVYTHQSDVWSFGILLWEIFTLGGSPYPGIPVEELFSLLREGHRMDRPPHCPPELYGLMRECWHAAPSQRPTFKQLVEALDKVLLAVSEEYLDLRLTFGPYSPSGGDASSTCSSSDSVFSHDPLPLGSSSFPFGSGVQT

Chain of CDK16/cyclin Y (PCTAIRE) (Q00536 whole entry): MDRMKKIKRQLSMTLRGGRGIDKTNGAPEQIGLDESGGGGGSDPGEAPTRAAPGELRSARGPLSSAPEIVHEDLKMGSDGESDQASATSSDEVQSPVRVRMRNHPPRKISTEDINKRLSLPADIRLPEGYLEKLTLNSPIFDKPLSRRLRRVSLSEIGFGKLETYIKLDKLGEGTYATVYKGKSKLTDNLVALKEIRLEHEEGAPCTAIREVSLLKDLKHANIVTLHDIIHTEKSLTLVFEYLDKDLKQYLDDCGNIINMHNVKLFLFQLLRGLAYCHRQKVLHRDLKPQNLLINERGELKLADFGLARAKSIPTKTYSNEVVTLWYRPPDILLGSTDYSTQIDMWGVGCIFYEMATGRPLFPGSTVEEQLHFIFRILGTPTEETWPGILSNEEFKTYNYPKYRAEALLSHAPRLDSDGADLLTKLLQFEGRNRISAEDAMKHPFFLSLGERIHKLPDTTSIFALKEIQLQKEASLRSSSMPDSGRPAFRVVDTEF
Chain of CDK16/cyclin Y (PCTAIRE) (Q8ND76 whole entry partner): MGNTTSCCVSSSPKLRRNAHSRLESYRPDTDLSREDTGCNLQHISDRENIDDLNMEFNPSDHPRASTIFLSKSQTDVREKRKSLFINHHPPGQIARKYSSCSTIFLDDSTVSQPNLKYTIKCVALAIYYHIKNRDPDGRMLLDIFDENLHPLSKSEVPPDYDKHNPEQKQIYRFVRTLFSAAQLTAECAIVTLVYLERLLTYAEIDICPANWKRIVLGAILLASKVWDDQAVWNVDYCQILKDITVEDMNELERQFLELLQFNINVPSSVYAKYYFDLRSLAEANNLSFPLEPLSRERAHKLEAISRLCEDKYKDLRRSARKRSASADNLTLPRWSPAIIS
Chain of STK38/NDR1 (Q15208 whole entry): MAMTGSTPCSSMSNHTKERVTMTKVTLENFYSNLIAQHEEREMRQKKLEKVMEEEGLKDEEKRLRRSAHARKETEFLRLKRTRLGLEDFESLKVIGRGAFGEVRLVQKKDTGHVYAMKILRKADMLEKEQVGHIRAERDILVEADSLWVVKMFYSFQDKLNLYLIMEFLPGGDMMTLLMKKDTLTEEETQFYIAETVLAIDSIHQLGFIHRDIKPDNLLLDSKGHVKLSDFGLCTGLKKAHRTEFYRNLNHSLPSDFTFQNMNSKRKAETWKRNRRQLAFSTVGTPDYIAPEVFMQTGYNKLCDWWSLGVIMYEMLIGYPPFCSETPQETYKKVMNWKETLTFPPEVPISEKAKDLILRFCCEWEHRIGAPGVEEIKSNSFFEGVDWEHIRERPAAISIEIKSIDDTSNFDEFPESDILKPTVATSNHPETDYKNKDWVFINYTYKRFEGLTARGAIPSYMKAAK
Chain of RSK4 (Q9UK32 whole entry): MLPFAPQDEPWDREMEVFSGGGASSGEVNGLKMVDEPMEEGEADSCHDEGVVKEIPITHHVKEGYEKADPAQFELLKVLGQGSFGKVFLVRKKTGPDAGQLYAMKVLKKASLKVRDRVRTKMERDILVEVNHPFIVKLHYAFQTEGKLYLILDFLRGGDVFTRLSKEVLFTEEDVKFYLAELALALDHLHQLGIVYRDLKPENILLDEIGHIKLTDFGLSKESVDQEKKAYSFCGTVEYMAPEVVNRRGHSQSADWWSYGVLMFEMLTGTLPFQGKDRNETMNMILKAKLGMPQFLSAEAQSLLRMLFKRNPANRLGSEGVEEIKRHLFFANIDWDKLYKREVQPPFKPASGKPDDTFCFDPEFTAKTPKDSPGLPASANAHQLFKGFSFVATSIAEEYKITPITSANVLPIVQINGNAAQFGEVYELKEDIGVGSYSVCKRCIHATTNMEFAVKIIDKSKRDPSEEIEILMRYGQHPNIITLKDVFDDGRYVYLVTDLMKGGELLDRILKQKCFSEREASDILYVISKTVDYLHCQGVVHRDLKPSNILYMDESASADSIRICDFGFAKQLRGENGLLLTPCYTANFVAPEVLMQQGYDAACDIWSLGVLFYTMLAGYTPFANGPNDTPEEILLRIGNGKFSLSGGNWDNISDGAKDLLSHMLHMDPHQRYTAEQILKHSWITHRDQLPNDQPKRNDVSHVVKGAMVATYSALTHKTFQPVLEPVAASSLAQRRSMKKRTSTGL

Structure (SMILES) | % enzyme activity (EPHA1) [%] | % enzyme activity (Haspin) [%] | % enzyme activity (PDK1/PDPK1) [%] | % enzyme activity (RSK4) [%] | % enzyme activity (STK38/NDR1) [%] | remaining activity at 1 µM (CDK16/cyclin Y (PCTAIRE)) [%] | remaining activity at 1 µM (FGFR4) [%]
COc1cc(-c2cncc(-c3ccc(N4C[C@@H](C)N(C)[C@@H](C)C4)cc3)c2C)cc(F)c1C(N)=O [Compound 26c, 2-Fluoro-6-methoxy-4-(4-methyl-5-(4-((3R,5S)-3,4,5-trimethylpiperazin-1-yl)phenyl)pyridin-3-yl)benzamide] | 89.93 | 82.31 | 94.36 | 94.61 | 93.15 | 91.6 | 99.6
COc1cc(-c2cncc(-c3ccc(N4CCN(C)CC4)cc3)c2C)cc(F)c1C(N)=O [Compound 26a, 2-Fluoro-6-methoxy-4-(4-methyl-5-(4-(4-methylpiperazin-1-yl)phenyl)pyridin-3-yl)benzamide] | 96.36 | 82.77 | 91.49 | 95.64 | 90.38 | 92.8 | 98.2
